The test system of assay [1] is P. aeruginosa CICC21630. The class given is cell-based, Pseudomonas aeruginosa. Conditions: microtiter broth dilution, 10^5 CFU/ml, 16‒18 h at 37 °C; representative of three independent experiments. The procedure: The MIC values of LfcinB17-33 derivatives against bacteria were determined by the microtiter broth dilution method. Briefly, 10 μl of serially diluted aliquots of peptides were added to each well of 96-well microtiter plates, followed by the addition of 90 μl exponential phase bacteria (10^5 CFU/ml) and incubated for 16‒18 h at 37 °C.

Assay [2] has as its system S. aureus ATCC25923. Description: Outer membrane permeabilization, NPN uptake. It is filed as cell-based, Staphylococcus aureus. As to conditions: 1×, 2× or 4 × MIC; HEPES buffer pH 7.2. Here is the method: (§1) The effects of Lfcin4 and Lfcin5 on the outer membrane of S. aureus ATCC25923 and S. enteritidis CVCC3377 were determined by measuring the uptake of NPN[44][45]. Mid-log phase cells were washed with sterile normal saline three times and suspended in 5 mM HEPES buffer (pH 7.2, containing 5 mM glucose) to an OD at 600 nm of 0.5. […] The relative fluorescence intensity was measured using an Infinite M200 PRO plate reader. The excitation and emission wavelengths were set at 328 and 438 nm, respectively. Treatment with PBS severed as a negative control, and treatment with ampicillin or colistin was used as a positive control.

In assay [3] the test system is S. enteritidis CVCC337. Description: Outer membrane permeabilization, NPN uptake. It is filed as cell-based, Salmonella enteritidis. Conditions: 1×, 2× or 4 × MIC; HEPES buffer pH 7.2. Here is the method:
as §1

Assay [4] has as its system S. aureus ATCC25923. Description: Inner membrane permeabilization, PI staining by flow cytometry. It is filed as cell-based, Staphylococcus aureus. Conditions: 1 × MIC, 37 °C, untreated 0.04%. Here is the method:
The permeabilization of the inner membrane was performed according to a previous report by Li et al. with slight modifications. […] Bacterial cells were then washed twice with PBS, fixed with 50 μg/ml PI and analyzed using a BD FACS Calibur Flow Cytometer (Franklin Lakes, New Jersey, USA). Data were analyzed using CellQuest Pro software (BD, USA).

Assay [5] concerns genomic DNA from E. coli O157. The assay is described as follows: Gel retardation (EMSA) of genomic DNA. Conditions: 0.7% agarose gel, 10 min 37 °C; ratios tested 0, 0.5, 1, 2.5, 5, 10 (w/w). The class given is binding, Escherichia coli. Here is the method: Genomic DNA was extracted from S. aureus ATCC25923, E. coli O157 and S. enteritidis CVCC3377 using a TIANamp Bacteria DNA Kit (TIANGEN Biotech Co., Ltd., Beijing). The gel retardation experiment was performed by mixing the bacterial DNA with different concentrations of Lfcin4 or Lfcin5 in 20 μl binding buffer (10 mM Tris-HCl, pH 8.0, 5% glycerol, 1 mM dithiothreitol, 1 mM EDTA, 20 mM KCl, and 50 μg/ml bovine serum albumin)[41]. The ratios of peptide to DNA were 0, 0.5, 1, 2.5, 5.0, and 10.0 (w/w). The mixtures were incubated for 10 min at 37 °C and then subjected to electrophoresis on a 0.7% agarose gel.

Assay [6] concerns S. aureus ATCC25923. The assay is described as follows: Macromolecular synthesis, incorporation of radioactive precursors. It is filed as cell-based, Staphylococcus aureus. As to conditions: 1 × MIC; 3H-glucosamine. Here is the method: The effects of each peptide on the incorporation of L-[methyl-^3H] thymidine, [5-^3H] uridine, D-[6-^3H(N)] glucosamine hydrochloride, and L-[3,4,5-^3H] leucine into DNA, RNA, peptidoglycans, and proteins were investigated in S. aureus ATCC25923. […] Radioactive precursors of ^3H-thymidine, ^3H-uridine, ^3H-leucine, and ^3H-glucosamine (40 μCi/ml) were added to cultures to measure macromolecular synthesis and incubated for 20 min at 37 °C. Cold 25% trichloroacetic acid (TCA) was added to the mixture and placed on ice for 30 min. After centrifugation, pellets were washed twice with 25% TCA, dried and counted with scintillation fluid on a MicroBeta 1450 scintillation counter (Perkin Elmer)[46].

Assay [7] concerns S. aureus ATCC25923. The class given is in vivo. As to conditions: for reduction of bacterial burden in thigh: 10 h after treatment. Here is the method:
The thigh infection protocol was performed as previously described. Female BALB/c mice (6 weeks old, 22 ± 2 g) were rendered neutropenic (neutrophils, 100/mm^3) by intraperitoneal injection with 150 and 100 mg cyclophosphamide per kg of body weight for 4 d and 1 d before infection, respectively. Mice were inoculated with 100 μl of S. aureus ATCC25923 cells (1.0 × 10^7 CFU/ml) and given a single dose (0.2 ml) of Lfcin4 or Lfcin5 (10 or 15 mg/kg of body weight) or vancomycin (10 mg/kg of body weight) by tail vein injection at 2 h post-infection. Mice were humanely euthanized by cervical dislocation at 5 and 10 h after treatment. Thighs were removed and homogenized in sterile PBS for a CFU assay for S. aureus ATCC25923.

Assay [8] deals with LPS from E. coli O111:B4. Description: LPS-induced endotoxemia model, survival. The class given is in vivo, mouse (C57BL/6). Conditions: followed 7 d, groups of eight mice. Here is the method: Male C57BL/6 mice (8 weeks old, 22 ± 2 g) were intraperitoneally injected with 30 mg/kg of LPS (0.2 ml) from E. coli O111:B4 cells as previously described. Mice were intraperitoneally injected with Lfcin4 or Lfcin5 (10, 15 or 20 mg/kg of body weight in 0.2 ml) or colistin (15 mg/kg of body weight in 0.2 ml) at 0.5, 8 and 24 h after inoculation with LPS, respectively. Mice injected with LPS or saline only served as positive or mock-treated controls, respectively. Survival was recorded every 12 h and followed for up to 7 d.

For assay [9], the system named is LPS-induced lung injury. The assay is described as follows: LPS-induced lung injury, histology. As to conditions: 15 mg/kg i.p. 30 min after LPS 10 mg/kg. The class given is in vivo, mouse (C57BL/6). The procedure:
Thirty minutes after intraperitoneal injection of LPS (10 mg/kg of body weight in 0.2 ml), mice were intraperitoneally injected with Lfcin4, Lfcin5 or colistin (15 mg/kg of body weight in 0.2 ml). Mice were sacrificed at 8 h, 1 d, 4 d, and 7 d after LPS injection. The lungs were removed, washed with PBS and fixed in 4% paraformaldehyde at 4 °C for 24 h. After they were washed with PBS and dehydrated with a graded series of ethanol (75‒95%), the tissues were infiltrated with xylene and embedded in paraffin wax. Sections were cut, stained with hematoxylin and eosin and examined under a light microscope. Mice injected with LPS or only PBS served as positive or mock-treated controls, respectively.

Where “and” joins values, the source holds several entries; their conditions need not be identical. Equal values may be shown once. Read-outs that look alike come from different tables or passages of the source. A value given as a limit tells only on which side of the number the result lay.

With “FKAWRWAWRMKKLAAPS [Lfcin4, 17-residue LfcinB17-31 derivative, Trp/Ala-containing]”, the MIC in assay [1] was >58 μM and >128 μg/ml. Also, the “time to permeabilization of the outer membrane (NPN fluorescence)” value in assay [2] and in assay [3] was not above 1 min throughout. The PI-positive cells in [4] (30 min) was found to be 44.20%; in [4] (120 min) it was 50.10%. In addition, the “peptide:DNA mass ratio at which migration of genomic DNA is impaired” value in assay [5] was “over 1.0 mass ratio (peptide:DNA)”. Besides, the “label incorporation into peptidoglycans (in words)” value in [6] is “increased label incorporation into peptidoglycans”. Further, the “reduction of bacterial burden in thigh” value stood at 0.03 log10 CFU/g in [7] (10 mg/kg single i.v. dose (Fig. 6A)) and 0.10 log10 CFU/g in assay [7] (15 mg/kg single i.v. dose (Fig. 6A)). Besides, in assay [7] (10 h post-treatment, 15 mg/kg single i.v. dose), the “S. aureus cells killed” value was determined as 20.5%. The “greater reduction of viable bacteria in infected thighs compared to control mice” value in assay [7] (increasing doses from 10 to 15 mg/kg (discussion)) is 0.85 log10 CFU/g of tissue. In addition, the survival rate in [8] (10 mg/kg i.p. at 0.5, 8 and 24 h after LPS 30 mg/kg i.p.) stood at 75%; in assay [8] (15 mg/kg i.p. at 0.5, 8 and 24 h after LPS 30 mg/kg i.p.) it was 100%; in assay [8] (20 mg/kg i.p. at 0.5, 8 and 24 h after LPS 30 mg/kg i.p.), 100%. The “lung histology (in words)” value in assay [9] (8 h‒4 d) was “apparently less lung damage”; in assay [9] (7 d), “no obvious pathological differences”.

The values above are taken from publication PMC5347165, “Killing of Staphylococcus aureus and Salmonella enteritidis and neutralization of lipopolysaccharide by 17-residue bovine lactoferricins: improved activity of Trp/Ala-containing molecules” (Scientific Reports, 2017).
